Seven cell lines from the supplement of paper PMC10307832 can be followed below.

Common to all, as to experiment: relative viability (nuclei count vs DMSO), 5 days (fraction); higher = more cells survive
Compound in the experiment “Gemcitabine + Navitoclax”: Nc1ccn([C@@H]2O[C@H](CO)[C@@H](O)C2(F)F)c(=O)n1 [Gemcitabine] + CC1(C)CCC(c2ccc(Cl)cc2)=C(CN2CCN(c3ccc(C(=O)NS(=O)(=O)c4ccc(N[C@H](CCN5CCOCC5)CSc5ccccc5)c(S(=O)(=O)C(F)(F)F)c4)cc3)CC2)C1 [Navitoclax] (partner 0.5 µM)
A digest of the protocol: (§1)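 Relative viability is defined as nuclei in treated wells over nuclei in vehicle wells. Duplicate plates were run and medians reported. Lung cancer cell lines in 1536-well plates were dosed by pin tool one day after seeding, with one drug or with a fixed anchor-drug dose plus five library-drug doses (not always all listed) in √10 steps, and nuclei were counted after 5 days.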

Compound in the experiment “Gemcitabine + Trametinib”: Nc1ccn([C@@H]2O[C@H](CO)[C@@H](O)C2(F)F)c(=O)n1 [Gemcitabine] + CC(=O)Nc1cccc(-n2c(=O)n(C3CC3)c(=O)c3c(Nc4ccc(I)cc4F)n(C)c(=O)c(C)c32)c1 [Trametinib] (partner 0.02 µM)
A digest of the protocol: as §1

Compound in the experiment “Gemcitabine + Phenformin”: Nc1ccn([C@@H]2O[C@H](CO)[C@@H](O)C2(F)F)c(=O)n1 [Gemcitabine] + N=C(N)NC(=N)NCCc1ccccc1 [Phenformin] (partner 250 µM)
A digest of the protocol:
as §1

Compound in the experiment “Gemcitabine + Pemetrexed”: Nc1ccn([C@@H]2O[C@H](CO)[C@@H](O)C2(F)F)c(=O)n1 [Gemcitabine] + Nc1nc2[nH]cc(CCc3ccc(C(=O)N[C@@H](CCC(=O)O)C(=O)O)cc3)c2c(=O)[nH]1 [Pemetrexed] (partner 0.2 µM)
In short, it runs like this:
as §1

Consider LOU-NH91, for which the relative viability worked out at 0.717 in the experiment with Gemcitabine + Navitoclax (first compound 0.001 µM); 0.448 with Gemcitabine + Navitoclax (first compound 0.003162 µM); 0.292 in the experiment with Gemcitabine + Navitoclax (first compound 0.01 µM); 0.213 with Gemcitabine + Navitoclax (first compound 0.03162 µM); 0.213 in the experiment with Gemcitabine + Navitoclax (first compound 0.1 µM); 0.787 with Gemcitabine + Trametinib (first compound 0.001 µM). Moreover, the relative viability in the experiment with Gemcitabine + Trametinib (first compound 0.003162 µM) was 0.762; in the experiment with Gemcitabine + Trametinib (first compound 0.01 µM), 0.578; in the experiment with Gemcitabine + Trametinib (first compound 0.03162 µM), 0.466; in the experiment with Gemcitabine + Trametinib (first compound 0.1 µM), 0.358; in the experiment with Gemcitabine + Phenformin (first compound 0.001 µM) it was 0.723; with Gemcitabine + Phenformin (first compound 0.003162 µM) it was 0.498. Further, the relative viability in the experiment with Gemcitabine + Phenformin (first compound 0.01 µM) amounted to 0.442; with Gemcitabine + Phenformin (first compound 0.03162 µM), 0.225; with Gemcitabine + Phenformin (first compound 0.1 µM) it was 0.21; with Gemcitabine + Pemetrexed (first compound 0.001 µM), 0.397; with Gemcitabine + Pemetrexed (first compound 0.003162 µM) it was 0.413; in the experiment with Gemcitabine + Pemetrexed (first compound 0.01 µM) it was 0.441. Also, the relative viability with Gemcitabine + Pemetrexed (first compound 0.03162 µM) came out at 0.269; in the experiment with Gemcitabine + Pemetrexed (first compound 0.1 µM), 0.286.

With NCI-H2347, the relative viability with Gemcitabine + Navitoclax (first compound 0.001 µM) was found to be 0.86; with Gemcitabine + Navitoclax (first compound 0.003162 µM) it was 0.64; in the experiment with Gemcitabine + Navitoclax (first compound 0.01 µM) it was 0.639; with Gemcitabine + Navitoclax (first compound 0.03162 µM) it was 0.334; with Gemcitabine + Navitoclax (first compound 0.1 µM) it was 0.206; with Gemcitabine + Trametinib (first compound 0.001 µM), 0.305. The relative viability turned out to be 0.255 with Gemcitabine + Trametinib (first compound 0.003162 µM); 0.276 with Gemcitabine + Trametinib (first compound 0.01 µM); 0.258 with Gemcitabine + Trametinib (first compound 0.03162 µM); 0.2 with Gemcitabine + Trametinib (first compound 0.1 µM); 0.381 with Gemcitabine + Phenformin (first compound 0.001 µM); 0.346 with Gemcitabine + Phenformin (first compound 0.003162 µM). Further, the relative viability with Gemcitabine + Phenformin (first compound 0.01 µM) was 0.304; with Gemcitabine + Phenformin (first compound 0.03162 µM) it was 0.275; with Gemcitabine + Phenformin (first compound 0.1 µM) it was 0.221; in the experiment with Gemcitabine + Pemetrexed (first compound 0.001 µM) it was 0.43; with Gemcitabine + Pemetrexed (first compound 0.003162 µM) it was 0.391; with Gemcitabine + Pemetrexed (first compound 0.01 µM) it was 0.409. The relative viability with Gemcitabine + Pemetrexed (first compound 0.03162 µM) was 0.357; with Gemcitabine + Pemetrexed (first compound 0.1 µM), 0.366.

NCI-H2126: the relative viability was 0.821 with Gemcitabine + Navitoclax (first compound 0.001 µM); 0.815 in the experiment with Gemcitabine + Navitoclax (first compound 0.003162 µM); 0.812 in the experiment with Gemcitabine + Navitoclax (first compound 0.01 µM); 0.728 with Gemcitabine + Navitoclax (first compound 0.03162 µM); 0.369 with Gemcitabine + Navitoclax (first compound 0.1 µM); 0.59 with Gemcitabine + Trametinib (first compound 0.001 µM). Also, the relative viability came out at 0.57 in the experiment with Gemcitabine + Trametinib (first compound 0.003162 µM); 0.514 in the experiment with Gemcitabine + Trametinib (first compound 0.01 µM); 0.418 in the experiment with Gemcitabine + Trametinib (first compound 0.03162 µM); 0.305 in the experiment with Gemcitabine + Trametinib (first compound 0.1 µM); 0.504 in the experiment with Gemcitabine + Phenformin (first compound 0.001 µM); 0.422 in the experiment with Gemcitabine + Phenformin (first compound 0.003162 µM). For the same cell line, the relative viability turned out to be 0.399 with Gemcitabine + Phenformin (first compound 0.01 µM); 0.358 with Gemcitabine + Phenformin (first compound 0.03162 µM); 0.216 with Gemcitabine + Phenformin (first compound 0.1 µM); 0.628 with Gemcitabine + Pemetrexed (first compound 0.001 µM); 0.742 in the experiment with Gemcitabine + Pemetrexed (first compound 0.003162 µM); 0.628 in the experiment with Gemcitabine + Pemetrexed (first compound 0.01 µM). Besides, the relative viability with Gemcitabine + Pemetrexed (first compound 0.03162 µM) was 0.577; in the experiment with Gemcitabine + Pemetrexed (first compound 0.1 µM), 0.3.

As to HCC-827, the relative viability in the experiment with Gemcitabine + Navitoclax (first compound 0.001 µM) came out at 0.967; in the experiment with Gemcitabine + Navitoclax (first compound 0.003162 µM), 0.815; with Gemcitabine + Navitoclax (first compound 0.01 µM) it was 0.557; in the experiment with Gemcitabine + Navitoclax (first compound 0.03162 µM), 0.357; with Gemcitabine + Navitoclax (first compound 0.1 µM), 0.224; in the experiment with Gemcitabine + Trametinib (first compound 0.001 µM) it was 0.537. Also, the relative viability is 0.247 with Gemcitabine + Trametinib (first compound 0.003162 µM); 0.316 in the experiment with Gemcitabine + Trametinib (first compound 0.01 µM); 0.184 in the experiment with Gemcitabine + Trametinib (first compound 0.03162 µM); 0.156 in the experiment with Gemcitabine + Trametinib (first compound 0.1 µM); 0.448 in the experiment with Gemcitabine + Phenformin (first compound 0.001 µM); 0.248 in the experiment with Gemcitabine + Phenformin (first compound 0.003162 µM). In addition, the relative viability in the experiment with Gemcitabine + Phenformin (first compound 0.01 µM) came to 0.281; with Gemcitabine + Phenformin (first compound 0.03162 µM) it was 0.197; with Gemcitabine + Phenformin (first compound 0.1 µM), 0.154; with Gemcitabine + Pemetrexed (first compound 0.001 µM), 0.301; in the experiment with Gemcitabine + Pemetrexed (first compound 0.003162 µM), 0.224; in the experiment with Gemcitabine + Pemetrexed (first compound 0.01 µM), 0.248. The relative viability with Gemcitabine + Pemetrexed (first compound 0.03162 µM) amounted to 0.176; with Gemcitabine + Pemetrexed (first compound 0.1 µM), 0.145.

For NCI-H3122, the relative viability with Gemcitabine + Navitoclax (first compound 0.001 µM) came to 1.02; with Gemcitabine + Navitoclax (first compound 0.003162 µM), 1.03; with Gemcitabine + Navitoclax (first compound 0.01 µM) it was 0.912; with Gemcitabine + Navitoclax (first compound 0.03162 µM) it was 0.253; with Gemcitabine + Navitoclax (first compound 0.1 µM), 0.196; with Gemcitabine + Trametinib (first compound 0.001 µM), 0.219. For the same cell line, the relative viability with Gemcitabine + Trametinib (first compound 0.003162 µM) was determined as 0.237; with Gemcitabine + Trametinib (first compound 0.01 µM), 0.174; in the experiment with Gemcitabine + Trametinib (first compound 0.03162 µM), 0.141; with Gemcitabine + Trametinib (first compound 0.1 µM) it was 0.0965; with Gemcitabine + Phenformin (first compound 0.001 µM), 0.436; with Gemcitabine + Phenformin (first compound 0.003162 µM), 0.322. The relative viability in the experiment with Gemcitabine + Phenformin (first compound 0.01 µM) came out at 0.165; with Gemcitabine + Phenformin (first compound 0.03162 µM), 0.13; with Gemcitabine + Phenformin (first compound 0.1 µM), 0.121; with Gemcitabine + Pemetrexed (first compound 0.001 µM) it was 0.196; with Gemcitabine + Pemetrexed (first compound 0.003162 µM) it was 0.206; with Gemcitabine + Pemetrexed (first compound 0.01 µM), 0.191. Also, the results for the relative viability with Gemcitabine + Pemetrexed (first compound 0.03162 µM) and in the experiment with Gemcitabine + Pemetrexed (first compound 0.1 µM) were 0.138 and 0.105, respectively.

In the case of HOP-62, the relative viability worked out at 0.933 with Gemcitabine + Navitoclax (first compound 0.001 µM); 0.813 with Gemcitabine + Navitoclax (first compound 0.003162 µM); 0.097 with Gemcitabine + Navitoclax (first compound 0.01 µM); 0.0507 in the experiment with Gemcitabine + Navitoclax (first compound 0.03162 µM); 0.0459 with Gemcitabine + Navitoclax (first compound 0.1 µM); 0.366 in the experiment with Gemcitabine + Trametinib (first compound 0.001 µM). The relative viability with Gemcitabine + Trametinib (first compound 0.003162 µM) stood at 0.405; in the experiment with Gemcitabine + Trametinib (first compound 0.01 µM), 0.24; with Gemcitabine + Trametinib (first compound 0.03162 µM), 0.122; with Gemcitabine + Trametinib (first compound 0.1 µM), 0.0817; in the experiment with Gemcitabine + Phenformin (first compound 0.001 µM), 0.67; with Gemcitabine + Phenformin (first compound 0.003162 µM), 0.492. The relative viability worked out at 0.239 with Gemcitabine + Phenformin (first compound 0.01 µM); 0.0719 with Gemcitabine + Phenformin (first compound 0.03162 µM); 0.0597 with Gemcitabine + Phenformin (first compound 0.1 µM); 0.323 with Gemcitabine + Pemetrexed (first compound 0.001 µM); 0.299 with Gemcitabine + Pemetrexed (first compound 0.003162 µM); 0.15 with Gemcitabine + Pemetrexed (first compound 0.01 µM). Moreover, the relative viability was 0.0689 with Gemcitabine + Pemetrexed (first compound 0.03162 µM) and 0.0761 with Gemcitabine + Pemetrexed (first compound 0.1 µM).

For the cell line HCC-44, the relative viability in the experiment with Gemcitabine + Navitoclax (first compound 0.001 µM) is 0.97; with Gemcitabine + Navitoclax (first compound 0.003162 µM) it was 0.993; with Gemcitabine + Navitoclax (first compound 0.01 µM) it was 0.893; with Gemcitabine + Navitoclax (first compound 0.03162 µM), 0.173; in the experiment with Gemcitabine + Navitoclax (first compound 0.1 µM), 0.154; in the experiment with Gemcitabine + Trametinib (first compound 0.001 µM), 1.11. The relative viability in the experiment with Gemcitabine + Trametinib (first compound 0.003162 µM) came out at 1.02; with Gemcitabine + Trametinib (first compound 0.01 µM) it was 1.02; with Gemcitabine + Trametinib (first compound 0.03162 µM), 0.895; with Gemcitabine + Trametinib (first compound 0.1 µM), 0.42; with Gemcitabine + Phenformin (first compound 0.001 µM), 0.156; with Gemcitabine + Phenformin (first compound 0.003162 µM) it was 0.139. Also, the relative viability with Gemcitabine + Phenformin (first compound 0.01 µM) worked out at 0.101; with Gemcitabine + Phenformin (first compound 0.03162 µM), 0.098; with Gemcitabine + Phenformin (first compound 0.1 µM), 0.102; in the experiment with Gemcitabine + Pemetrexed (first compound 0.001 µM), 0.634; with Gemcitabine + Pemetrexed (first compound 0.003162 µM) it was 0.68; with Gemcitabine + Pemetrexed (first compound 0.01 µM) it was 0.66. In addition, the values for the relative viability in the experiment with Gemcitabine + Pemetrexed (first compound 0.03162 µM) and with Gemcitabine + Pemetrexed (first compound 0.1 µM) were 0.632 and 0.63, respectively.
